# How the values were obtained:
# [1] = test system: HIV-1 latent cell line U1; test: Viral mRNA expression in U1 cells activated with LPS; type: cell-based; settings: lenalidomide 2 μmol/L pretreatment 24 hrs
# Protocol: After the HIV-1 latent cell line is activated by activator, the expression of viral mRNA in the cells is increased, causing the production of virions. […] The U1 cells were divided into three groups. The negative control group was added with the same amount of culture medium. In the positive control group, cells were pretreated with the culture medium, and LPS was added as an activator after 24 hrs. In the experimental group, lenalidomide (2 μmol/L) was added to pretreat the cells for 24 hrs and then LPS was added to activate the cells. […] (2) The expression levels of multi-spliced RNA, single-spliced RNA and non-spliced RNA in U1 were also detected.
# [2] = test system: HIV-1 primary cell CD8-PBMCs; test: Virus reactivation in HIV-1 primary cells CD8-PBMCs (intracellular P24 by flow cytometry, CA HIV RNA by RT-PCR); type: cell-based, human
# Protocol: Lenalidomide is confirmed to inhibit the transcription of virus in HIV-1 latent cell line, and whether it has the same effect in HIV primary cells is unknown. CD8-PBMCs were divided into an experimental group and a positive control group and treated with or without lenalidomide for 5 days. Both groups were supplemented with LPS irregularly. In the negative control group, the same amount of DMSO was added for control culture throughout the whole process. After 5 days, the cells were broken, and the difference in expression of intracellular P24 protein in CD8-PBMCs was detected by flow cytometry. As shown in A in FIG. 5, in the positive control group, the intracellular HIV-1 core P24 in CD8-PBMCs reaches 9.76% after the continuous action of activator. […] The differences in the expression of CA HIV RNA in the five samples were also detected.
# [3] = test system: HIV reservoir; test: Clinical cohort: indicators of HIV reservoir (CA HIV RNA) in PBMCs extracted from patients; type: in vivo, human
# Protocol: HIV patients with CM after antiretroviral therapy (ART) were recruited. These participants had central damage after receiving standard anti-fungal therapy, elevated cerebrospinal fluid (CSF) protein level, age of 18 years or more, and plasma HIV RNA of <50 copies/ml and CD4 T cell count of >100 cells/mm3 after receiving ART for at least 48 weeks. Lenalidomide (25 mg) was orally administered at days 1 to 21 in a 28-day cycle, and ART was continued for 48 weeks. The participants were followed up at 7 points (base line 0w, 4w, 8w, 12w, 24w, 36w, and 48w). Inflammatory cytokines in CSF and peripheral blood were detected at each follow-up point, and PBMCs were extracted from the patients and detected for indicators of HIV reservoir. […] For CA HIV-RNA, lenalidomide has a great influence. […] The subjects Nos. 110 and 113 have a decline that exceeds 2 log order of magnitude.
# [4] = Clinical cohort: inflammatory markers and cytokines in peripheral blood and CSF of HIV patients on lenalidomide; type: in vivo, human
# Protocol: HIV patients with CM after antiretroviral therapy (ART) were recruited. […] Lenalidomide (25 mg) was orally administered at days 1 to 21 in a 28-day cycle, and ART was continued for 48 weeks. The participants were followed up at 7 points (base line 0w, 4w, 8w, 12w, 24w, 36w, and 48w). Inflammatory cytokines in CSF and peripheral blood were detected at each follow-up point, and PBMCs were extracted from the patients and detected for indicators of HIV reservoir.
# [5] = test system: U1 cells; test: CCK8 survival rate of U1 cells; type: cell-based; settings: lenalidomide 0.5, 1, 2, 5, 10, and 20 μmol/L, 24 hrs
# Protocol: CCK8 was used to evaluate the safety of lenalidomide when U1 cells were treated with it in vitro. After U1 cells were treated with various concentrations of lenalidomide (0.5, 1, 2, 5, 10, and 20 μmol/L) for 24 hrs, the survival rate of U1 cells was detected by CCK8 kit. […] There is no significant difference between the control group and various concentration groups and between the various concentration groups. Lenalidomide has a high safety when acting on latent cell lines in vitro.
# [6] = test system: C11 cells; test: GFP activation of C11 cells by supernatant of PBMCs treated with lenalidomide; type: cell-based; settings: supernatant of lenalidomide group; control group 23.17%
# Excerpt: (§1) Lenalidomide has a powerful immunomodulatory effect, and can inhibit the release of pro-inflammatory cytokines in PBMCs derived from HIV patients in vitro and promote the secretion of anti-inflammatory cytokine IL-10. However, whether this degree of immunomodulation can inhibit HIV replication was not confirmed. The latent cell lines J-lat10.6 and C11 cells were used for the experiment. The supernatants of the experimental group and control group were used to stimulate J-lat10.6 and C11 cells, respectively. […] Lenalidomide can regulate the release of inflammatory cytokines in PBMCs from HIV-1 patients in vitro, and this bypass pathway can inhibit virus reactivation in HIV-1 latent cell lines.
# [7] = test system: latent HIV cell line U1; test: P24 ELISA in supernatant of U1 cells stimulated with latent activator; type: cell-based; settings: pretreated 1, 2, and 5 μmol/L lenalidomide 24 hrs
# Protocol: U1 cells were pretreated with various concentrations of lenalidomide (1, 2, and 5 μmol/L) for 24 hrs, and then the U1 cells pre-treated with lenalidomide were stimulated with a latent activator (TNF-a, PMA, or LPS). The U1 cells in the negative control group were cultured alone, and the U1 cells in the positive control group were not pretreated with lenalidomide. The activation of P24 protein in the supernatant of latent cells U1 was detected by ELISA. […] Compared with the positive control group, the P24 contents decline in the supernatants of the three experimental groups pretreated with 1, 2, and 5 μmol/L lenalidomide, and the difference is statistically significant (P=0.0029, 0.0019, and 0.0017, B in FIG. 3). The difference between various concentrations of lenalidomide groups is not obvious. (2) In the experiment where TNF-α of 20 μg/ml is used as the latent activator, similar results are observed. […] (3) The study of endotoxin (LPS, 10 μg/ml) as a latent activator is rare.
# [8] = test system: J-lat10.6 cells; test: GFP activation of J-lat10.6 cells by supernatant of PBMCs treated with lenalidomide; type: cell-based; settings: supernatant added with lenalidomide; control supernatant activates GFP by 51.7%
# Excerpt: as §1
# [9] = test system: PBMCs derived from HIV-1 patients; test: Cytokines in supernatant of PBMCs from HIV-1 patients (cytometric bead array); type: cell-based, human; settings: PBMCs co-cultured with lenalidomide 24 hrs vs control group
# Protocol: The in-vitro regulatory effect of lenalidomide was verified as follows. PBMCs were separated from peripheral blood donated by HIV-1 patients, and divided into a control group and an experimental group. The control group was cultured alone, and the experimental group was co-cultured with lenalidomide. After 24 hrs, the supernatant was taken for cytokine detection. The level of cytokines in the supernatant was measured by a cytometric bead array kit.
# [10] = peripheral blood, after lenalidomide treatment
compound,measurement,setting,value
Nc1cccc2c1CN(C1CCC(=O)NC1=O)C2=O (stereo not drawn) [lenalidomide],expression level of multi-spliced RNA,[1]; then LPS,significantly inhibits
same,expression level of non-spliced RNA,[1]; then LPS,significantly inhibits
same,expression level of single-spliced RNA,[1]; then LPS,significantly inhibits
same,mRNA level of Gag,[1]; then LPS 10 μg/ml 24 hrs,basically inhibited
same,mRNA level of Rev protein,[1]; then LPS 10 μg/ml 24 hrs,basically inhibited
same,expression of intracellular antigen P24,"[2]; 5 days with lenalidomide and LPS, positive control 9.76%, DMSO control 0.73%",4.15%
same,decrease of average amount of CA HIV-1 RNA vs positive control group,"[2]; five samples, RT-PCR",0.49 time
same,CA HIV-RNA,"[3]; 13 patients, from the 24th week, more obvious at the 48th week",declines obviously
same,decline of CA RNA,[3]; subjects Nos. 110 and 113,exceeds 2 log order of magnitude
same,IL-6 level in CSF,[4]; CSF,significantly reduces
same,TNF-a level in CSF,[4]; CSF,significantly reduces
same,IL-6,[4]; [10],decrease significantly
same,TNF-a,[4]; [10],decrease significantly
same,CRP of HIV subjects,"[4]; peripheral blood, lenalidomide 25 mg oral days 1 to 21 of 28-day cycle, after 7 weeks",decrease
same,D-dimer of HIV subjects,"[4]; peripheral blood, lenalidomide 25 mg oral days 1 to 21 of 28-day cycle, after 12 weeks",decrease
same,survival rate of U1 cells,[5],less affected
same,GFP activation of C11 cells,[6],8.09%
same,P24 content in supernatant vs positive control group,[7]; LPS 10 μg/ml,significantly lower
same,P24 content in supernatant vs positive control group,[7]; PMA 20 nmol/L 24 hrs,decline
same,P24 content in supernatant vs positive control group,[7]; TNF-α 20 μg/ml,significantly lower
same,J-lat10.6 GFP,[8],24.21%
same,IL-6 in supernatant,[9],decrease significantly
same,IL-10 in supernatant,[9],increases significantly
same,TNF-α in supernatant,[9],decrease significantly
